# Earlier results as cited in patent US20100120050A1, “Biomarkers For Assessing Altherosclerotic Potential” (ENTELOS, INC., priority 2008, published 2010).
# Details: clinical trials and post-marketing; cited from earlier work
smiles,measurement,value
Cc1c(C(=O)NN2CCCCC2)nn(-c2ccc(Cl)cc2Cl)c1-c1ccc(Cl)cc1 [rimonabant],effect on plaque endpoints,little observed effect on plaque endpoints
